Measurements taken from paper PMC9871035, “Discovery of structural and functional transition sites for membrane-penetrating activity of sheep myeloid antimicrobial peptide-18” (Scientific Reports, 2023).
Where no end group is shown, it is not given here.

Columns and labels:
[1] = Estimation of helicity from CD; assay type: physicochemical; settings: peptide 100 μM, from [θ]mr at 222 nm; for % α-helix, H2O: H2O (10 mM sodium phosphate, pH 7.0)
Experimental: CD spectra were measured on a J-810 spectropolarimeter (JASCO) using a 1.0 mm path-length cell. […] Three scans were conducted from 190 to 260 nm and the data are expressed in terms of mean residue molar ellipticity [θ]mr. The mean residue ellipticity, [θ]mr (deg cm^2 dmol^-1), was calculated according to the equation [θ]mr = (100θ)/(clN), where θ is the measured ellipticity (mdeg), c is the sample concentration (mM), l is the path length (cm), and N is the number of amino acids. Percent α-helicity was calculated using the equation ([θ]mr222nm—3000)/(− 39,000 × 100)[29]. Reference values for [θ]mr222nm = 0 and 36,000 (deg cm^2 dmol^−1) were used for 0% and 100% helicity, respectively[30].

[2] = test system: Gram-negative and Gram-positive bacteria; experiment: MIC over the panel of six strains (GM, range); assay type: cell-based; settings: six strains of Table 1; average value ± SD
Experimental: The antimicrobial activity of the peptides, i.e., their MIC values, were determined against Escherichia coli (KCTC 1682), Salmonella typhimurium (KCTC 1926), Pseudomonas aeruginosa (KCTC 1637), Bacillus subtilis (KCTC 3068), Staphylococcus epidermidis (KCTC 1917), Staphylococcus aureus (KCTC 1621), and Methicillin-resistant Staphylococcus aureus (CCARM 3089, 3090 and 3095) using broth microdilution in a 96-well plate according to existing methodologies[23]. Bacteria were grown at 37 ℃ on a spinner culture until a mid-log phase diluted to 2 × 10^6 CFU/ml in 1% peptone. The bacterial suspension was added to 100 μl of the sample solution (i.e., serial twofold dilution in 1% peptone). […] All experiments were performed in triplicate and included growth and sterility controls.

S. aureus (KCTC 1621) [3] = experiment: SYTOX Green uptake assay; assay type: cell-based, Staphylococcus aureus; settings: 2 × MIC, SYTOX 0.1 μM, PBS pH 7.4
Experimental: The membrane permeabilization activity of the peptides was determined by using the SYTOX Green uptake assay, as described previously[33]. S. aureus (KCTC 1621) grown at 37 ℃ until the mid-log phase (OD600 = 0.4). The cell pellet was washed using PBS (pH 7.4) and was diluted to an OD600 = 0.05 in PBS (pH 7.4); SYTOX was added to the final concentration of 0.1 μM and this solution was pre-incubated in the dark at 4 ℃ for 16 h. Fluorescence was monitored using a F-4500 FL spectrophotometer (Hitachi, Japan) and excitation and emission wavelengths of 480 nm and 520 nm, respectively.

[4] = test system: S. aureus (KCTC 1621) cytoplasmic membrane; experiment: Membrane depolarization assay (diSC3-5); assay type: cell-based, Staphylococcus aureus; settings: 2 × MIC, monitored over 1400 s
Experimental: The cytoplasmic membrane depolarization activity of the peptides was measured using the membrane potential sensitive dye diSC3-5, as previously described[31],[32]. Briefly, S. aureus (KCTC 1621) was grown at 37 ℃ with agitation until the mid-log phase (OD600 = 0.3) and was harvested by centrifugation. Cells are washed twice with a buffer solution (i.e., 20 mM Glucose, 5 mM HEPES, 100 mM KCl; pH 7.4) and were resuspended to an OD600 = 0.05 in the buffer. Membrane depolarization was monitored by recording changes in the intensity of fluorescence emission of diSC3-5 after peptide concentration.

S. aureus (KCTC 1621) [5] = experiment: Confocal laser scanning microscopy of FITC-labeled peptides; assay type: cell-based, Staphylococcus aureus; settings: FITC-labeled peptide 10 μM, 37 ℃, 30 min
Experimental: (§1) E. coli (KCTC 1682) and S. aureus (KCTC 1621) were grown at mid-log phase and washed three times with PBS (pH 7.4). The bacteria were diluted at 10^6 CFU/ml and incubated with FITC-labeled peptides (10 μM) at 37 ℃ for 30 min. After incubation, this solution was washed thrice with PBS and was then transferred to a confocal dish. […] Fluorescent images were obtained with a 488 nm bandpass filter for FITC excitation.

E. coli (KCTC 1682) = experiment: as above; assay type: cell-based, Escherichia coli; settings: FITC-labeled peptide 10 μM, 37 ℃, 30 min
Experimental: as §1

RGLRRLG-NH2 [R1-G7]
% α-helix, 50% TFE [1]: 6.9% | % α-helix, H2O [1]: 5.6% | GM (geometric mean of MIC values from selected bacterial strains) [2]: > 64 µM

RALRRLARKIAHAVKKYG-NH2 [G2,7,13A]
% α-helix, 50% TFE [1]: 44.4% | % α-helix, H2O [1]: 5.7% | SYTOX Green uptake (fluorescence) (S. aureus (KCTC 1621) [3]): induced the maximal fluorescence | Membrane depolarization of S. aureus (diSC3-5 fluorescence) [4]: induced a significant membrane depolarization | GM (geometric mean of MIC values from selected bacterial strains) [2]: 4.3(± 2.9) μM | Localization of peptide in S. aureus (S. aureus (KCTC 1621) [5]): likely bound to the cell membrane | Localization of peptide in E. coli (E. coli (KCTC 1682)): likely bound to the cell membrane

RGLRRLARKIAHAVKKYG-NH2 [G7,13A]
% α-helix, 50% TFE [1]: 33.9% | % α-helix, H2O [1]: 7.6% | SYTOX Green uptake (fluorescence) (S. aureus (KCTC 1621) [3]): induced the maximal fluorescence | Membrane depolarization of S. aureus (diSC3-5 fluorescence) [4]: induced a significant membrane depolarization | GM (geometric mean of MIC values from selected bacterial strains) [2]: 4.5(± 2.9) μM
